Here are results for two molecules from publication PMC7898795 (Angewandte Chemie (International Ed. in English), 2020).

The data set is described as follows: Water solubility assay. Format: physicochemical. The conditions noted are these: for solubility thermodynamic at 24 h: thermodynamic from solid.
The mark [1] stands for this setting: 50 mM TEAA buffer, pH 7.9, aqueous buffer.

In brackets after ≈: the same amount, converted by molar mass.

On to `C=C(NC(=O)C(=C)NC(=O)c1csc(C2=N[C@@H]3c4csc(n4)[C@H]4NC(=O)c5csc(n5)[C@H]([C@](C)(O)[C@@H](C)O)NC(=O)[C@H]5CSC(=N5)/C(=C/C)NC(=O)[C@H]([C@@H](C)O)NC(=O)c5csc(n5)[C@]3(CC2)NC(=O)[C@H](C)NC(=O)C(=C)NC(=O)[C@H](C)NC(=O)[C@H]([C@@H](C)CC)N[C@@H]2C=Cc3c([C@H](C)O)cc(nc3[C@H]2O)C(=O)O[C@@H]4C)n1)C(N)=O` [Thiostrepton, thiostrepton, reference compound], for which the solubility (thermodynamic) – broadly, the concentration in solution at equilibrium with solid – at 24 h reads like this: under setting [1], 5 ± 0.2 µg/mL (≈ 3 µM); (ddH2O, water) 6.4 ± 0.1 µg/mL (≈ 3.84 µM).
As for `C=C1NC(=O)[C@H](C)NC(=O)[C@H]([C@@H](C)CC)N[C@@H]2C=Cc3c([C@H](C)O)cc(nc3[C@H]2O)C(=O)O[C@H](C)[C@@H]2NC(=O)c3csc(n3)[C@H]([C@](C)(O)[C@@H](C)O)NC(=O)[C@H]3CSC(=N3)/C(=C/C)NC(=O)[C@H]([C@@H](C)O)NC(=O)c3csc(n3)[C@]3(CCC(c4nc(C(=O)NC(CB(O)O)C(=O)NC(CB(O)O)C(N)=O)cs4)=N[C@@H]3c3csc2n3)NC(=O)[C@H](C)NC1=O` (stereo partly drawn) [compound 3], the solubility (thermodynamic) at 24 h was 422 ± 8.5 µg/mL (≈ 240 µM) under setting [1] and 170 ± 2.6 µg/mL (≈ 96.6 µM) (ddH2O, water). The “times more water-soluble than thiostrepton, in 50 mM TEAA (pH 7.9)” value (ratio of solubility to that of thiostrepton in 50 mM TEAA pH 7.9) stood at 84 ×. The “times more water-soluble than thiostrepton, in ddH2O” value (ratio of solubility to that of thiostrepton in ddH2O) came out at 27 ×.
